Common to all, as to type: cell-based
Experiment [1] addresses human A2A receptor (Homo sapiens, UniProt P29274). Kind of experiment: Functional A2A receptor activity, recombinant HEK293 cells, cAMP (HTRF), agonist NECA. Details: expressed in transfected cells; host or cells: HEK293. The conditions noted are these: read-out: Functional A2A receptor activity, HEK293, cAMP, IC50. As to the method:
(§1) The functional activities of human A2A, A2B, A1 and A3 receptors were determined by quantification of cAMP, being the second messenger for adenosine receptors.
(§2) Cells were seeded into 384-well plates, forskolin, test compounds and agonists (CPA for A1- and IB-MECA for A3-receptor) were added. After 30 min incubation, HTRF reagents (cAMP dynamic 2, Cis Bio) were added and the cellular cAMP levels were determined using the ENVISION (Perkin Elmer) plate reader. Obtained raw data were normalized against the inhibitor control and the neural control (DMSO) and the normalized data were fitted using GeneData software.
For orientation: In TR-FRET formats the signal depends on donor and acceptor labels being close together.

Experiment [2] deals with T1, human A3 receptor (Homo sapiens, UniProt P0DMS8).
T1 construct: expressed in transfected cells; host or cells: CHO
T1 sequence (P0DMS8 1-318): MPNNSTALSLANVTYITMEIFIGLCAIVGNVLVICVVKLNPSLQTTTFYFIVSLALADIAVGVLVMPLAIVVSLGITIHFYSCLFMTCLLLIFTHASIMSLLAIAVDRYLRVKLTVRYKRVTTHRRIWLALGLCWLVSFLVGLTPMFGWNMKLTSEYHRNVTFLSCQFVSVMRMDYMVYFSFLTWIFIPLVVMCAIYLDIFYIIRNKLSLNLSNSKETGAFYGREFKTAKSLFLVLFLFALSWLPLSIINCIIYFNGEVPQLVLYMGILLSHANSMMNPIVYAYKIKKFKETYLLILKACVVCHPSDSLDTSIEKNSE
Description: Functional A3 receptor activity, recombinant CHO cells, cAMP (HTRF), forskolin, agonist IB-MECA. The conditions noted are these: recombinant CHO cells, forskolin, agonist IB-MECA, read-out: Functional A3 receptor activity, CHO, cAMP, IC50. The protocol: as §1
(§3) For human A1 and A3 receptors, recombinant CHO cells, expressing either A1 or A3-receptor, were used. As both receptors couple to Gi proteins, the assay protocol was adapted:
as §2

Experiment [3] deals with T2, human A2B receptor (Homo sapiens, UniProt P29275).
T2 construct: expressed in transfected cells; host or cells: HEK293
T2 sequence (P29275 1-332): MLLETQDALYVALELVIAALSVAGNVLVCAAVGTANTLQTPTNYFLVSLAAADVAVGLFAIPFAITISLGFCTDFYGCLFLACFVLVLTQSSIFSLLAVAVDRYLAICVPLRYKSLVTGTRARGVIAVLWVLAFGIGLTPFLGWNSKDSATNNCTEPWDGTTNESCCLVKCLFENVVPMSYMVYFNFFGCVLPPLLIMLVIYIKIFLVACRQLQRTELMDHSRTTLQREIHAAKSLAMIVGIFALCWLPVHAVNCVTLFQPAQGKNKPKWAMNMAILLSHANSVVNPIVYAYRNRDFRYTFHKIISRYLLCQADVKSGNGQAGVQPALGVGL
Description: Functional A2B receptor activity, recombinant HEK293 cells, cAMP (HTRF), agonist NECA. The conditions noted are these: read-out: Functional A2B receptor activity, HEK293, cAMP, IC50. The protocol:
as §1, §2

The target of experiment [4] is T3, human A1 receptor (Homo sapiens, UniProt P30542).
T3 construct: expressed in transfected cells; host or cells: CHO
T3 sequence (P30542 1-326): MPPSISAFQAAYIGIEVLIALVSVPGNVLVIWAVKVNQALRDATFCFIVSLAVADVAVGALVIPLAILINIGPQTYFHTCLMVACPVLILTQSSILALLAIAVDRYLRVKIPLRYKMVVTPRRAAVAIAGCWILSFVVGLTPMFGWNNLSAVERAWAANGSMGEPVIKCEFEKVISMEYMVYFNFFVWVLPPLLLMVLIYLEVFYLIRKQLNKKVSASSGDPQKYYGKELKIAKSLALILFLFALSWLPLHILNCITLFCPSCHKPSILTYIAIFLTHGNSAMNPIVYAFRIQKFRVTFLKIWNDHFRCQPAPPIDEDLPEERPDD
Description: Functional A1 receptor activity, recombinant CHO cells, cAMP (HTRF), forskolin, agonist CPA. Particulars: recombinant CHO cells, forskolin, agonist CPA, read-out: Functional A1 receptor activity, CHO, cAMP, IC50. As to the method:
as §1, §3, §2

Read-outs that look alike come from different tables or passages of the source. A value given as a limit tells only on which side of the number the result lay.

Broadly, the IC50 is the point on the concentration scale where inhibition reaches its midpoint.

human A2A receptor, sequence (P29274 whole entry): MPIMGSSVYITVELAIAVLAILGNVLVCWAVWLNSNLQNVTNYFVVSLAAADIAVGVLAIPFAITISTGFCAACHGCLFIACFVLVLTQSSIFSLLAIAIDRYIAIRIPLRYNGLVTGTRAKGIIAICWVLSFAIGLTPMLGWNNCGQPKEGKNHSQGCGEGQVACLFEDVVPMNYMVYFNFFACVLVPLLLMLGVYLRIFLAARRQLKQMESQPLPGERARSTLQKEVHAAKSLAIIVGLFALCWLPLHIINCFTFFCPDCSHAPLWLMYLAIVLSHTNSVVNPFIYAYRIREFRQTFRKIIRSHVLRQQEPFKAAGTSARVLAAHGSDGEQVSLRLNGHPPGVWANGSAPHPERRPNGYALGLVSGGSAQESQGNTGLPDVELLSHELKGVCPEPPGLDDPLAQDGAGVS

As to `COc1ncc(C2=CCOCC2)c2sc(NC(=O)c3cnn(-c4ccncc4)c3)nc12` [Compound 157, 1-Pyridin-4-yl-1H-pyrazole-4-carboxylic acid [7-(3,6-dihydro-2H-pyran-4-yl)-4-methoxy-thiazolo[4,5-c]pyridin-2-yl]-amide], the concentration for half-maximal inhibition (IC50) is under 10 nM in experiment [1], over 1000 nM in experiment [2], under 10 nM in experiment [3] and under 1000 nM in experiment [4].
On to `COc1cnc(N2CCOCC2)c2sc(NC(=O)N3CCOCC3)nc12` [drawing 193, reference compound], for which the half-maximal inhibitory concentration (IC50) was under 10 nM in experiment [1], under 1000 nM in experiment [2] (cAMP), under 1000 nM in experiment [3] and over 1000 nM in experiment [4] (cAMP).
Take `COc1nc(F)c(C2CCOCC2)c2sc(NC(=O)c3cnn(C)c3)nc12` [Compound 23, N-[6-fluoro-4-methoxy-7-(oxan-4-yl)-[1,3]thiazolo[4,5-c]pyridin-2-yl]-1-methyl-1H-pyrazole-4-carboxamide]: the IC50 in experiment [1] was under 10 nM; in experiment [2], over 1000 nM; in experiment [3], under 10 nM; in experiment [4], under 1000 nM.
`COCCNc1ncc(C(=O)Nc2nc3c(OC)ncc(C4CCOCC4)c3s2)s1` [Compound 17, N-[4-methoxy-7-(oxan-4-yl)-[1,3]thiazolo[4,5-c]pyridin-2-yl]-2-[(2-methoxyethyl)amino]-1,3-thiazole-5-carboxamide]: the IC50 in experiment [1] was under 10 nM; in experiment [2] it was over 1000 nM; in experiment [3] it was under 10 nM; in experiment [4] it was under 1000 nM.
For the molecule `COc1cnc(N2CCOCC2)c2sc(NC(=O)N3CCC(CO)CC3)nc12` [drawing 188, reference compound], the IC50 in experiment [1] is under 10 nM; in experiment [2] (cAMP), over 1000 nM; in experiment [3] it was under 1000 nM; in experiment [4] (cAMP), over 1000 nM.
Consider `COc1ncc(-c2cnn(Cc3ccncc3)c2)c2sc(NC(=O)N3CCC4(CCOCC4)C3)nc12` [Compound 75, 8-Oxa-2-aza-spiro[4.5]decane-2-carboxylic acid [4-methoxy-7-(1-pyridin-4-ylmethyl-1H-pyrazol-4-yl)-thiazolo[4,5-c]pyridin-2-yl]-amide], for which the IC50 is under 10 nM in experiment [1], over 1000 nM in experiment [2], under 100 nM in experiment [3] and over 1000 nM in experiment [4].
Regarding `COc1nc(F)c(-c2ccc(F)cc2)c2sc(NC(=O)N3CCC(C)(O)CC3)nc12` [Compound 27, 4-Hydroxy-4-methyl-piperidine-1-carboxylic acid [6-fluoro-7-(4-fluoro-phenyl)-4-methoxy-thiazolo[4,5-c]pyridin-2-yl]-amide], the IC50 in experiment [1] was under 10 nM; in experiment [2] it was over 1000 nM; in experiment [3], under 10 nM; in experiment [4], under 1000 nM.
On to `COc1ncc(-c2ccccc2)c2sc(NC(=O)N3CCC(C(=O)N(C)C)CC3)nc12` [Compound 123, Piperidine-1,4-dicarboxylic acid 4-dimethylamide 1-[(4-methoxy-7-phenyl-thiazolo[4,5-c]pyridin-2-yl)-amide]], for which the IC50 in experiment [1] is under 10 nM; in experiment [2], over 1000 nM; in experiment [3] it was under 100 nM; in experiment [4] it was over 1000 nM.
As for `COc1ncc(C2=CCC(OC)CC2)c2sc(NC(=O)N3CC[C@]4(CCCOC4)C3)nc12` (stereo partly drawn) [Compound 70, (5R)-N-[4-methoxy-7-(4-methoxycyclohex-1-en-1-yl)-[1,3]thiazolo[4,5-c]pyridin-2-yl]-7-oxa-2-azaspiro[4.5]decane-2-carboxamide], the IC50 in experiment [1] was under 10 nM; in experiment [2] it was over 1000 nM; in experiment [3], under 1000 nM; in experiment [4] it was over 1000 nM.
With `COc1ncc(C2=CCOCC2)c2sc(NC(=O)Nc3ccc(N4CCOC4=O)cc3)nc12` [Compound 95, 3-[7-(3,6-dihydro-2H-pyran-4-yl)-4-methoxy-[1,3]thiazolo[4,5-c]pyridin-2-yl]-1-[4-(2-oxo-1,3-oxazolidin-3-yl)phenyl]urea], the 50% inhibitory concentration (IC50) in experiment [1] was under 10 nM; in experiment [2], under 1000 nM; in experiment [3] it was under 10 nM; in experiment [4], under 1000 nM.
Turning to `COc1ncc(-c2cnn(C(F)F)c2)c2sc(NC(=O)N3CCC4(CCOCC4)C3)nc12` [Compound 79, 8-Oxa-2-aza-spiro[4.5]decane-2-carboxylic acid [7-(1-difluoromethyl-1H-pyrazol-4-yl)-4-methoxy-thiazolo[4,5-c]pyridin-2-yl]-amide], the IC50 in experiment [1] is under 10 nM; in experiment [2] it was over 1000 nM; in experiment [3], under 100 nM; in experiment [4] it was under 1000 nM.
Regarding `COc1ccc(C2CCOCC2)c2sc(NC(=O)N3CCOCC3)nc12` [reference compound], the IC50 is under 10 nM in experiment [1], over 1000 nM in experiment [2] (cAMP), under 1000 nM in experiment [3] and under 1000 nM in experiment [4] (cAMP).
As for `COc1nc(F)c(N2CCOCC2)c2sc(NC(=O)C3CC3)nc12` [Compound 4, Cyclopropanecarboxylic acid (6-fluoro-4-methoxy-7-morpholin-4-yl-thiazolo[4,5-c]pyridin-2-yl)-amide], the half-maximal inhibitory concentration (IC50) was under 10 nM in experiment [1], under 1000 nM in experiment [2], under 10 nM in experiment [3] and over 1000 nM in experiment [4].
For `COc1ncc(C2=CCOCC2)c2sc(NC(=O)c3ccc(Cn4ccnc4)cc3)nc12` [Compound 82, N-[7-(3,6-dihydro-2H-pyran-4-yl)-4-methoxy-[1,3]thiazolo[4,5-c]pyridin-2-yl]-4-[(1H-imidazol-1-yl)methyl]benzamide], the IC50 in experiment [1] is under 10 nM; in experiment [2] it was over 1000 nM; in experiment [3], under 10 nM; in experiment [4] it was under 100 nM.
In the case of `COc1nc(F)c(C2CCOCC2)c2sc(NC(=O)C3CC3)nc12` [Compound 28, Cyclopropanecarboxylic acid [6-fluoro-4-methoxy-7-(tetrahydro-pyran-4-yl)-thiazolo[4,5-c]pyridin-2-yl]-amide], the IC50 in experiment [1] was under 10 nM; in experiment [2] it was under 1000 nM; in experiment [3] it was under 100 nM; in experiment [4], under 1000 nM.
As for `COc1ncc([C@@H]2COCCO2)c2sc(NC(=O)c3ccc(C(=O)O)cc3)nc12` [Compound 169, N-((R)-7-[1,4]Dioxan-2-yl-4-methoxy-thiazolo[4,5-c]pyridin-2-yl)-terephthalamic acid], the half-inhibitory concentration (IC50) in experiment [1] was under 10 nM; in experiment [2], over 1000 nM; in experiment [3], under 100 nM; in experiment [4] it was over 1000 nM.
As for `COc1ncc(-c2ccc(F)c(O)c2)c2sc(NC(=O)N3CCC4(CCOCC4)C3)nc12` [Compound 149, 8-Oxa-2-aza-spiro[4.5]decane-2-carboxylic acid [7-(4-fluoro-3-hydroxy-phenyl)-4-methoxy-thiazolo[4,5-c]pyridin-2-yl]-amide], the IC50 is under 10 nM in experiment [1], over 1000 nM in experiment [2], under 10 nM in experiment [3] and under 1000 nM in experiment [4].
`COc1nc(F)c(C2CCOCC2)c2sc(NC(=O)N3CCC4(CCOC4)C3)nc12` (stereo not drawn) [Compound 33, N-[6-fluoro-4-methoxy-7-(oxan-4-yl)-[1,3]thiazolo[4,5-c]pyridin-2-yl]-2-oxa-7-azaspiro[4.4]nonane-7-carboxamide]: the IC50 in experiment [1] is under 10 nM; in experiment [2], over 1000 nM; in experiment [3] it was under 100 nM; in experiment [4] it was over 1000 nM.

Source of the values: patent US12344623B2, “Thiazolopyridine derivatives as adenosine receptor antagonists” (Merck Patent GmbH, priority 2019, dated 2025).
